What was measured:
[1] = Permeability test with Caco-2 cells; format: in vitro ADME; conditions: human, Caco-2 monolayer, apical to basolateral, 30 and 60 minutes, read-out: apparent permeation coefficient (Papp)
Experimental: Permeability Test with Caco-2 Cells
0.5×10^6/cm^2 of Caco-2 cells (ATCC Catalog No. HTB-37, Manassas, Va., USA) were seeded into Transwell (polycarbonate filter: pore diameter 0.4 μm; culture area 0.33 cm^2; available from Costar Co.), and incubated in Dulbecco's modified Eagle's minimum essential medium (DMEM; available from Fisher Scientific International Inc.) for 21 to 30 days under the conditions of 37° C., 5% CO2 and 95% relative humidity, whereby a monolayer cell was prepared. The confluence of such a monolayer cell was evaluated by measuring trans epithelial electronic resistance (TEER). […] Based on the quantification results, apparent permeation coefficient (Papp) was calculated according to the formula: Papp=(δQ/δt)×(1/60AC0). • Papp: apparent permeation coefficient (cm/sec) • δQ/δt: permeation velocity (pmol/min) • A: area of monolayer cell=0.33 cm^2 • C0: initial concentration at apical membrane side (pmol/mL)

- Papp A→B at 60 min, 10 μM [1]: 17 ×10⁻⁶ cm/s
- melting point: 107.6 to 109.9 °C
Structure (SMILES): CCCCNC(=O)C(=O)[C@H](CC(C)C)NC(=O)[C@@H](NS(=O)(=O)c1ccc(F)cc1)C(C)C [Compound 1, (3S)-N-Butyl-3-((2S)-2-(((4-fluorophenyl)sulfonyl)amino)-3-methylbutanoylamino)-5-methyl-2-oxohexanamide]

Reference: US7022738B2, “α-ketoamide derivative and use thereof” (Senju Pharmaceutical Co., Ltd., priority 2002, dated 2006)
